Data on 4 compounds can be found in US20120082631A1, “COMPOSITIONS” (priority 2009, published 2012).

This test can be described thus: Sensory panel astringency ranking after brushing with toothpaste samples. The class given is in vivo. The conditions noted are these: for astringency ratings compared to those of the standard toothpaste base and the current market product: flavour material at 1000 ppm in toothpaste base with 0.75% zinc citrate, statement in words; for Astringency Rating (0-10): mean rating by a panel of three trained experts, 0 = no astringency, 10 = strong astringency, ingredients at 1000 ppm (0.1% w/w) in Standard Toothpaste Base with 0.75% Zinc Citrate, 30 seconds brushing, spit out, one water rinse. The method, then:
Differing flavour ingredients were added, at a concentration of 1000 ppm, to a non-flavoured toothpaste base containing 0.75% zinc citrate (ZCT).
Measured samples, of equal weight, of the non-flavoured toothpaste base containing 0.75% ZCT and the same toothpaste base modified with flavour ingredients were then placed on toothbrushes. The samples were tested by a panel of three independent trained experts. The panelists were instructed to brush their teeth for 30 seconds, spit out and rinse once with water. The subjects were then asked to rank the astringency on a scale of 0 to 10 for each sample, 0 representing no astringency and 10 representing strong astringency. A current market product was also tested in the same way.
Table 1 lists the flavour ingredients added to the non-flavoured toothpaste base containing 0.75% zinc citrate, along with the mean astringency rating of each sample. Also included in table 1 is the mean astringency rating of the non-flavoured toothpaste base containing 0.75% ZCT and the current market product.

In the case of `CC1=C(O)C(=O)CC1` [Cyclotene, 2-hydroxy-3-methyl-2-cyclopenten-1-one], the “astringency ratings compared to those of the standard toothpaste base and the current market product” value (“astringency ratings compared to those” for short) was “significantly lower astringency ratings”; the “Astringency Rating (0-10)” value stood at 4.5.

With `CCc1occc(=O)c1O` [Ethyl Maltol, 2-ethyl-3-hydroxy-4H-pyran-4-one], the “astringency ratings compared to those” value was “significantly lower astringency ratings”; the “Astringency Rating (0-10)” value was determined as 3.5.

Consider `Cc1occc(=O)c1O` [Maltol, 3-hydroxy-2-methyl-4H-pyran-4-one], for which the “astringency ratings compared to those” value is on record as “significantly lower astringency ratings”; the “Astringency Rating (0-10)” value was determined as 3.8.

For `COc1cc(C=O)ccc1O` [Vanillin, reference compound], the “Astringency Rating (0-10)” value was found to be 6.5.
